Assays:
bioactive TGFβ-1 [1] = assay: Antigen-capture ELISA of renal graft lysates, bioactive TGFβ-1; format: in vivo, rat; details: treated recipients vs untreated allogeneic control grafts
Method: Enzyme Linked Immunoabsorbant Assay (ELISA): TGFβ-1 and MMP 2 levels were quantified by antigen-capture ELISA. […] After blocking with 1× block buffer at 37° C. for 35 minutes 25 ul of cell lysate (diluted 1:10 in the lysis buffer) was added to the wells. A standard curve was generated by performing two fold serial dilutions of the standard active TGFβ-1 antigen (diluted 15.6 pg/ml to 1000 pg/ml, Promega, Inc.) or MMP2 (0.5 ng/ml to 100 ng/ml, R and D Systems). The plate was incubated for 2 hours at RT with shaking and then washed extensively with wash buffer (0.05% Tween 20 in PBS) followed by PBS. The TGFβ-1 ELISA was then developed according to the manufacturer's instruction. For the MMP2 ELISA, biotinylated detection antibody, clone 101721 (25 μL/well at 1.4 ug/ml R and D Systems) was added and incubated at RT (1hour, with shaking). The antibody was biotinylated using a Mini-Biotin-XX Protein Labeling Kit (F-6347) according to manufacturer's instruction (Molecular Probes, Eugene Oreg.). Following further washing, avidin-peroxidase conjugate was added (25 ul/well at 1:5000) for 30 minutes at RT. A color reaction was developed by the addition of 25 ul of the TMB (3, 3′, 5, 5′-tetramethylbenzidine)/[…] substrate solution, (KPL, Gaithersberg, Md.). […] Absorbance was measured at 450 nm on a Vmax Kinetic microplate reader (Molecular Devices, Sunnyvale Calif.). […]

bioactive TGFβ-1 [2] = assay: Immunohistochemistry of renal grafts for bioactive TGFβ-1; format: in vivo, rat
Method: FIGS. 6 (B) and (C) show immunohistochemistry for bioactive TGFβ-1 in two 1,25-(OH)2D3 treated grafts (1000 ng/rat/day). […] Magnification 200×.
Immunhistochemistry: Formalin fixed, paraffin embedded rat kidneys were sectioned to 4 microns. Sections were rewarmed on day of staining at 60° for 10 minutes, then deparaffinized in xylene for 30 minutes followed by rehydration. Sections were washed twice in distilled water and antigen retrieval performed. Briefly, section were soaked in 100 mM citrate buffer, pH=6.0 for 10 minutes at 90° C. and then heated to 115° C. or 20 minutes Sections were allowed to cool and then washed in PBS and blocked for 10 minutes with BIOCARE SUPER SNIPER9 (BS996L) followed by diluted primary TGFβ-1 antibody (1:150 (Promega Corp., Madison, Wis.; G1221) at 4° C. overnight. Slides were washed (3×5 minutes, PBS) and secondary antibody applied (1 hour at RT, MACHII BIOCARE goat anti-rabbit with polymer spacer; RHRP52OH, Walnut Creek, Calif.).
Slides were developed with Pierce=s Stable Peroxide buffer (cat #1855910) and Pierce=s Stable Metal enhanced DAB solution (cat #1856090).

TGFβ-1 mRNA = assay: Semi-quantitative RT-PCR of renal grafts, TGFβ-1 mRNA; format: in vivo, rat; details: treated recipients vs untreated allogeneic control grafts
Method: (§1) Semi-quantitative Reverse transcription polymerace chain reaction (RT-PCR): Following graft harvest a […] containing both cortex and medulla was snap frozen in liquid nitrogen. Semi-quantitative RT-PCR was performed as described. Little et al. Transplant Int. 12:393-401, 1999. Briefly, samples were homogenized then total RNA extracted with RNAzol B (Tel Test, Inc., Friendswood, Tex.) and reversed transcribed to cDNA according to manufacturer=s instructions (Superscript, Gibco BRL). PCR was performed over the linear range of amplification for both the gene of interest, e.g. TGFβ-1, and the ribosomal protein S26 as a control housekeeping gene. PCR conditions were chosen such that both products were amplified with similar efficiency. The following cycle parameters were employed: denaturing, 94° C. for 60 seconds; annealing, 61° C. for 60 seconds; and extension, 72° C. for 60 seconds. The amount of product was quantified using a phosphoimager (Storm 80) following gel electrophoresis and Vista green detection.

Smad 3 mRNA = assay: Semi-quantitative RT-PCR of renal grafts, Smad 3 mRNA; format: in vivo, rat; details: vs controls
Method: as §1

[3] = system: kidney or kidney-pancreas transplant recipients; assay: Retrospective analysis of renal function (serial serum creatinine) in calcitriol-treated transplant patients; format: in vivo, human
From the text: Methodology-retrospective analysis: The University of Wisconsin transplant database was screened to identify any kidney and/or kidney-pancreas transplant recipient who received 1,25-dihydroxyvitamin D3 (calcitriol)peri-post-transplant. Clinical and demographic variables were abstracted from the database. Those patients with adequate follow-up data were included in the analysis (≧1year follow-up data following the initiation of calcitriol). Demographic variables included race, age, and nay history of parathyroidectomy as these patients would likely be receiving calcitriol at time of transplantation. The effect of calcitriol treatment on renal function was analyzed using general linear mixed modeling of the change in slope of renal function prior to and following the start of calcitriol therapy. […] Adverse events and hypercalcemia were noted by identifiers in the database and by serum calcium levels as recorded in the database. Hypercalcemia was defined as a serum calcium >10.5 mg/dl. Data assessment—Demographics: Calcitriol-treatment patients were divided into: Group 1: patients who initiated calcitriol therapy<one year following transplantation, Group 2: patients who remained on or initiated calcitriol therapy within two weeks of transplantation, Data assessment—outcomes for Group 1 patients: Renal function was determined by assessing serial serum creatinine values. This serum measure is a standard and accepted measure of renal function. The start of calcitriol therapy was defined as day 0. Time prior to initiation of calcitriol therapy was designated by a negative value. Mean serum creatinine levels appeared to increase in Group 1 patients (indicative of declining renal function) until the time of calcitriol therapy was initiated (Table 3).

C=C1/C(=C\C=C2/CCC[C@]3(C)[C@@H]([C@H](C)CCCC(C)(C)O)CC[C@@H]23)C[C@@H](O)C[C@@H]1O [calcitriol, 1,25-dihydroxyvitamin D3]
Bioactive TGFβ-1 protein levels (bioactive TGFβ-1 [1]): no significant difference | Glomerular staining for bioactive TGFβ-1 (bioactive TGFβ-1 [2]; 1000 ng/rat/day (FIG. 6 legend)): significantly decreased | Bioactive TGFβ-1 staining in tubular areas (bioactive TGFβ-1 [2]; allogeneic grafts (FIG. 6)): extensive staining | Bioactive TGFβ-1 expression in glomeruli (bioactive TGFβ-1 [2]; treated grafts in contrast to untreated control grafts (FIG. 6)): little bioactive TFGβ-1 expression | TGFβ-1 mRNA levels (TGFβ-1 mRNA): no significant difference | Smad 3 mRNA levels (Smad 3 mRNA): no significant change | Graft failures (loss of the transplant) ([3]; Group 1 (26 patients)): six | Serum creatinine levels following initiation of therapy ([3]; Group 1 patients): stabilized | Mean serum creatinine ([3]; Group 1 patients, day 100 after start of calcitriol therapy): 2.54 mg/dL | Mean serum creatinine ([3]; Group 1 patients, day 200 after start of calcitriol therapy): 2.44 mg/dL | Mean serum creatinine ([3]; Group 1 patients, day 300 after start of calcitriol therapy): 2.50 mg/dL | Mean serum creatinine ([3]; Group 1 patients, day 400 after start of calcitriol therapy): 2.27 mg/dL | Mean serum creatinine ([3]; Group 1 patients, day 500 after start of calcitriol therapy): 2.37 mg/dL | Creatinine trend (slope) after 300 days of therapy ([3]; Group 1 patients, repeated measures analysis of slopes): creatinine was decreasing evidenced by a negative slope | Difference (change in slope of serum creatinine over time) ([3]; Group 1 patients, treatment day +100, negative = decreasing slope, improved renal function): −0.0050 | Difference (change in slope of serum creatinine over time) ([3]; Group 1 patients, treatment day +200): −0.0046 | Difference (change in slope of serum creatinine over time) ([3]; Group 1 patients, treatment day +300): −0.0080 | Difference (change in slope of serum creatinine over time) ([3]; Group 1 patients, treatment day +400): −0.0085 | Difference (change in slope of serum creatinine over time) ([3]; Group 1 patients, treatment day +500): −0.0078 | Graft failures ([3]; Group 2 (22 patients)): two | Analysis of interval slopes of serum creatinine ([3]; Group 2 patients): no interview slopes significantly different from 0 | Mean serum creatinine ([3]; Group 2 patients (table title prints Group 1), day 100 of calcitriol): 1.61 mg/dL | Mean serum creatinine ([3]; Group 2 patients (table title prints Group 1), day 200 of calcitriol): 1.79 mg/dL | Mean serum creatinine ([3]; Group 2 patients (table title prints Group 1), day 300 of calcitriol): 1.70 mg/dL | Mean serum creatinine ([3]; Group 2 patients (table title prints Group 1), day 400 of calcitriol): 1.62 mg/dL | Mean serum creatinine ([3]; Group 2 patients (table title prints Group 1), day 500 of calcitriol): 1.82 mg/dL | Mean serum creatinine levels over time ([3]; Group 2 patients, first 600 days following initiation of calcitriol): remained stable

— US20080021002A1, “VITAMIN D COMPOUNDS USED TO STABILIZE KIDNEY TRANSPLANTS” (priority 2000, published 2008)
